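Test compounds were applied to cells in 96-well plates for 48 hours at 5 doses. The concentration for 50% growth inhibition is given as GI50. The concentration for full growth arrest is given as TGI.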

Experimental findings from PubChem BioAssay (NCI) are described below.

Holding throughout (experiment): NCI-60 cell line screen, 48 h
The test system of assay [1] is HCT-15 colon.
The subject of assay [2] is IGROV1 ovarian.
Assay [3] concerns COLO 205 colon.
For assay [4], the system named is T-47D breast.
Assay [5] relates to MALME-3M melanoma.
For assay [6], the system named is SNB-75 CNS.
In assay [7] the test system is TK-10 renal.
Assay [8] concerns KM12 colon.

For the compound `Oc1[nH]c2ccccc2c1/C=c1/ccc2c(c1)N=C(c1ccc(C(F)(F)F)cc1)N=2`, the GI50 in assay [1] is 4090 nM; in assay [2], 3010 nM; in assay [3] it was 9.89 µM; in assay [4], 3.58 µM; in assay [5], 2.9 µM; in assay [6], 2790 nM. The GI50 in assay [7] was 10.4 µM; in assay [8], 1090 nM. Moreover, the TGI in assay [1] was 20.3 µM; in assay [2] it was 13.3 µM; in assay [3] it was 22.1 µM; in assay [4], 14.4 µM; in assay [5], 9.23 µM; in assay [6] it was 12.9 µM. Besides, the figures for the TGI in assay [7] and in assay [8] were 22.2 µM and 12.7 µM, respectively.
For `CC(=O)/C(Br)=C/c1ccc(Br)o1`, the GI50 is 4200 nM in assay [1]; 10200 nM in assay [2]; 7.55 µM in assay [3]; 8.89 µM in assay [4]; 6.15 µM in assay [5]; 10300 nM in assay [6]. The GI50 was 5.42 µM in assay [7] and 12000 nM in assay [8]. In addition, the TGI in assay [1] came out at 16.1 µM; in assay [2], 29.2 µM; in assay [3], 20.9 µM; in assay [4] it was 24.2 µM; in assay [5], 14.3 µM; in assay [6], 33.3 µM. For the same compound, the TGI in assay [7] was 17.9 µM; in assay [8], 25.9 µM.
Take `Cc1ccc(-c2nc(-c3nccc4ccccc34)oc2-c2ccccc2)cc1`: the TGI is above 100 µM in assay [1]; above 100 µM in assay [2]; above 100 µM in assay [3]; above 100 µM in assay [4]; above 100 µM in assay [5]; 92.7 µM in assay [6]. Also, the TGI in assay [7] and in assay [8] was above 100 µM each time.
For the compound `COc1ccc(C2C(C#N)=C(N)Oc3c2sc2c(Br)cccc32)cc1` (configuration not stated), the GI50 in assay [1] is 930 nM; in assay [2] it was 2290 nM; in assay [3] it was 2.23 µM; in assay [4], 3.13 µM; in assay [5] it was 4.75 µM; in assay [6] it was 1610 nM. Besides, the GI50 is 8.48 µM in assay [7] and 1920 nM in assay [8]. For the same compound, the TGI stood at 10.7 µM in assay [1]; 20.9 µM in assay [2]; 5.39 µM in assay [3]; 15 µM in assay [4]; 25.3 µM in assay [5]; 8.06 µM in assay [6]. Further, the TGI turned out to be 22.2 µM in assay [7] and 14 µM in assay [8].
For the compound `CCCc1nc(Cl)c(Cl)c(Cl)n1`, the TGI is above 63.7 µM in assay [1]; 50.4 µM in assay [2]; above 100 µM in assay [3]; above 100 µM in assay [4]; above 51.4 µM in assay [5]; above 100 µM in assay [6]. Besides, the TGI in assay [7] and in assay [8] was above 100 µM each time.
Regarding `Cn1cc(C2=C(c3cn(CCCN)c4ccccc34)C(=O)NC2=O)c2ccccc21`, the GI50 in assay [1] is 5140 nM; in assay [2], 8950 nM; in assay [3] it was 3.27 µM; in assay [4] it was 6.4 µM; in assay [5] it was 5.66 µM; in assay [6] it was 998 nM. Further, the GI50 in assay [7] was 4.86 µM; in assay [8], 5440 nM. The TGI was above 25 µM in assay [1]; above 19.7 µM in assay [2]; 7.06 µM in assay [3]; 17.5 µM in assay [4]; 10.6 µM in assay [5]; 5.35 µM in assay [6]. The values for the TGI in assay [7] and in assay [8] were 12.8 µM and 14.2 µM, respectively.
Take `Cc1ccc(Cl)c(NS(=O)(=O)c2ccc(-c3cnc(C4CC4)o3)cc2)c1`: the GI50 is 55 nM in assay [1]; 129 nM in assay [2]; 0.154 µM in assay [3]; 0.0481 µM in assay [4]; 11 µM in assay [5]; 23.2 nM in assay [6]. In addition, the GI50 in assay [7] is 16 µM; in assay [8], 70 nM. In addition, the TGI was 18.2 µM in assay [1]; above 100 µM in assay [2]; 1.36 µM in assay [3]; 67.9 µM in assay [4]; 49.7 µM in assay [5]; 0.164 µM in assay [6]. Further, the TGI in assay [7] is above 89.7 µM; in assay [8] it was 22.4 µM.
As for `OC1CCCC2CCC[N-]C12.OC1CCCC2CCC[N-]C12.[O]=[V][OH]` (configuration not stated), the GI50 in assay [1] was 789 nM; in assay [2], 2370 nM; in assay [3], 21.1 µM; in assay [4] it was 0.825 µM; in assay [5], 5.03 µM; in assay [6], 32800 nM. Also, the results for the GI50 in assay [7] and in assay [8] were 44.9 µM and 7240 nM, respectively. Besides, the TGI was 12.5 µM in assay [1]; 12.2 µM in assay [2]; 81.8 µM in assay [3]; 26.6 µM in assay [4]; above 100 µM in assay [5]; above 100 µM in assay [6]. Further, the TGI in assay [7] and in assay [8] was above 100 µM each time.
`Cc1c2ccncc2c(C)c2c1sc1ccccc12`: the TGI in assay [1] was 31 µM; in assay [2] it was 21.6 µM; in assay [3], 26.9 µM; in assay [4], above 100 µM; in assay [5], 29.1 µM; in assay [6] it was 36.5 µM. Moreover, the TGI in assay [7] came out at 48.9 µM; in assay [8], 31.2 µM.
For `Oc1ccc(C(O)(c2ccccc2)c2ccccc2)c2ccccc12`, the TGI stood at 2.9 µM in assay [1]; 5.62 µM in assay [2]; 18.6 µM in assay [3]; 24 µM in assay [4]; 23.2 µM in assay [5]; 18.2 µM in assay [6]. Besides, the TGI in assay [7] came out at 8.73 µM; in assay [8], 8.05 µM.
In the case of `CN(C)Cc1ccc(NC(=O)c2cncc(C#Cc3cnc(N)c4ncccc34)c2)cc1F`, the GI50 was 1730 nM in assay [1]; 2130 nM in assay [2]; 10.3 µM in assay [4]; 1.61 µM in assay [5]; 1380 nM in assay [6]; 14.5 µM in assay [7]. Moreover, the GI50 in assay [8] is 1700 nM. In addition, the TGI in assay [1] came to 3.35 µM; in assay [2], 3.96 µM; in assay [4], 54.7 µM; in assay [5], 3.19 µM; in assay [6] it was 5.73 µM; in assay [7] it was 34.9 µM. This compound displayed a TGI in assay [8] of 3.16 µM.
